Test results as given in patent US10703740B2, “Substituted benzimidazoles, their preparation and their use as pharmaceuticals” (NEOMED Institute, priority 2015, dated 2020).

The molecules below were run on human C-Myc transcription in MV-4-11 cells (assay: Transcription of human C-Myc in human leukemic MV-4-11 cells (QuantiGene 2.0)). Conditions: Homo sapiens, MV4-11, 4 h, inhibition of C-Myc mRNA, 4 hours treatment, read-out: IC50 MV-4-11 Cell.
Assay type: cell-based
Procedure: The effect of compounds on transcription of human C-Myc gene is monitored in human B-myelomonocytic leukemia cell line MV-4-11 (from American Type Culture Collection (ATCC), Manassas, Va., USA) using QuantiGene 2.0 assay kit (Affymetrix, Santa Clara, Calif., USA).
Typically, 8,000 MV-4-11 cells are plated in sterile 96-well plates (Costar #3598 from Fisher Scientific Canada, Ottawa, Ontario, Canada) in Iscove's medium supplemented with 10% fetal bovine serum, glutamine (2 mM), and penicillin (100 I.U.) and streptomycin (100 μg/mL) (all from Wisent Inc., St. Bruno, Quebec, Canada). Compounds are dissolved in DMSO at 30 mM. A series of 1:3 dilutions are first made in DMSO, and further 1:100 dilutions are made in serum-containing cell culture media. The final concentration of DMSO is 0.1% in cell culture media. After cells are treated with various concentrations of test compound for 4 hours, cells are lysed using Quantigene 2.0 sample processing kit (# QS0100). C-Myc mRNA is detected using a QuantiGene 2.0 assay kit (# QS0009) with gene-specific probe to human C-Myc (# SA-50182) following the manufacturer's recommendations. Luminescene signals are read on Flexstation II microplate reader (Molecular Devices, Sunnyvale, Calif., USA).

Compound | IC50 [nM]
COC(C)Cn1c(C)nc2ccc(-c3cc(C)c(=O)n(C)c3)cc21 (stereo not drawn) [Compound 21a, 5-[3-(2-methoxypropyl)-2-methylbenzimidazol-5-yl]-1,3-dimethylpyridin-2-one] | 510
COC(C)Cn1cnc2ccc(-c3cc(C)c(=O)n(C)c3)cc21 (stereo not drawn) [Compound 22a, 5-[3-(2-methoxypropyl)benzimidazol-5-yl]-1,3-dimethylpyridin-2-one] | 840
COC[C@@H](C)n1c(C(F)(F)F)nc2ccc(-c3cc(C)c(=O)n(C)c3)cc21 [Compound 26, 5-[3-[(1R)-2-methoxy-1-methyl-ethyl]-2-(trifluoromethyl)benzimidazol-5-yl]-1,3-dimethylpyridin-2-one] | 230
Cc1cc(-c2ccc3nc(C4CC(F)(F)C4)n(CCOC(F)(F)F)c3c2)cn(C)c1=O [Compound 27, 5-[2-(3,3-difluorocyclobutyl)-3-[2-(trifluoromethoxy)ethyl]benzimidazol-5-yl]-1,3-dimethylpyridin-2-one] | 92
CO[C@H]1C[C@H](c2nc3ccc(-c4cc(C)c(=O)n(C)c4)cc3n2CCOC(F)(F)F)C1 [Compound 28a] | 50
CO[C@H]1C[C@@H](c2nc3ccc(-c4cc(C)c(=O)n(C)c4)cc3n2CCOC(F)(F)F)C1 [Compound 28b] | 50
Cc1cc(-c2ccc3nc(C4(C)CCOCC4)n(CCOC(F)(F)F)c3c2)cn(C)c1=O [Compound 31, 1,3-dimethyl-5-(2-(4-methyltetrahydro-2H-pyran-4-yl)-1-(2-(trifluoromethoxy)ethyl)-1H-benzo[d]imidazol-6-yl)pyridin-2(1H)-one] | 24
Cc1cc(-c2ccc3nc(C4CCOCC4)n(CCC(F)(F)F)c3c2)cn(C)c1=O [Compound 34, 1,3-dimethyl-5-[2-tetrahydropyran-4-yl-3-(3,3,3-trifluoropropyl)benzimidazol-5-yl]pyridin-2-one] | 220
Cn1cc(-c2ccc3nc(C4CCOCC4)n(CCOC(F)(F)F)c3c2)cc(Cl)c1=O [Compound 36, 3-chloro-1-methyl-5-[2-tetrahydropyran-4-yl-3-[2-(trifluoromethoxy)ethyl]benzimidazol-5-yl]pyridin-2-one] | 53
COCCn1c(Cc2ccccc2)nc2ccc(-c3cc(C)c(=O)n(C)c3)cc21 [Compound 37, 5-(2-benzyl-1-(2-methoxyethyl)-1H-benzo[d]imidazol-6-yl)-1,3-dimethylpyridin-2(1H)-one] | 490
COCCn1c(C2CCCCC2)nc2ccc(-c3cc(C)c(=O)n(C)c3)cc21 [Compound 38, 5-(2-cyclohexyl-1-(2-methoxyethyl)-1H-benzo[d]imidazol-6-yl)-1,3-dimethylpyridin-2(1H)-one] | 240
CCO[C@H](C)Cn1c(C2CCOCC2)nc2ccc(-c3cc(C)c(=O)n(C)c3)cc21 [Compound 39, (R)-5-(1-(2-ethoxypropyl)-2-(tetrahydro-2H-pyran-4-yl)-1H-benzo[d]imidazol-6-yl)-1,3-dimethylpyridin-2(1H)-one] | 84
CCO[C@@H](C)Cn1c(C2CCOCC2)nc2ccc(-c3cc(C)c(=O)n(C)c3)cc21 [Compound 40, (S)-5-(1-(2-ethoxypropyl)-2-(tetrahydro-2H-pyran-4-yl)-1H-benzo[d]imidazol-6-yl)-1,3-dimethylpyridin-2(1H)-one] | 27
Cc1cc(-c2ccc3nc(C4CCOCC4)n(CCOCC(F)(F)F)c3c2)cn(C)c1=O [Compound 41, 1,3-dimethyl-5-(2-(tetrahydro-2H-pyran-4-yl)-1-(2-(2,2,2-trifluoroethoxy)ethyl)-1H-benzo[d]imidazol-6-yl)pyridin-2(1H)-one] | 23
COCCn1c(CC2CCOCC2)nc2ccc(-c3cc(C)c(=O)n(C)c3)cc21 [Compound 42, 5-(1-(2-methoxyethyl)-2-((tetrahydro-2H-pyran-4-yl)methyl)-1H-benzo[d]imidazol-6-yl)-1,3-dimethylpyridin-2(1H)-one] | 170
Cc1cc(-c2ccc3nc(CC4CCOCC4)n(CCOC(F)(F)F)c3c2)cn(C)c1=O [Compound 43, 1,3-dimethyl-5-(2-((tetrahydro-2H-pyran-4-yl)methyl)-1-(2-(trifluoromethoxy)ethyl)-1H-benzo[d]imidazol-6-yl)pyridin-2(1H)-one] | 27
COCCn1c(C2CCC(F)(F)CC2)nc2ccc(-c3cc(C)c(=O)n(C)c3)cc21 [Compound 44, 5-(2-(4,4-difluorocyclohexyl)-1-(2-methoxyethyl)-1H-benzo[d]imidazol-6-yl)-1,3-dimethylpyridin-2(1H)-one] | 98
Cc1cc(-c2ccc3nc(C4CC4)n(CCOCC(F)(F)F)c3c2)cn(C)c1=O [Compound 45, 5-(2-cyclopropyl-1-(2-(2,2,2-trifluoroethoxy)ethyl)-1H-benzo[d]imidazol-6-yl)-1,3-dimethylpyridin-2(1H)-one] | 160
Cc1cc(-c2ccc3nc(C4CCOCC4)n(CC(C)C(F)(F)F)c3c2)cn(C)c1=O (stereo not drawn) [Compound 46a, 1,3-dimethyl-5-(2-(tetrahydro-2H-pyran-4-yl)-1-(3,3,3-trifluoro-2-methylpropyl)-1H-benzo[d]imidazol-6-yl)pyridin-2(1H)-one] | 220
CCOC[C@@H](C)n1c(C2CCOCC2)nc2ccc(-c3cc(C)c(=O)n(C)c3)cc21 [Compound 47, (R)-5-(1-(1-ethoxypropan-2-yl)-2-(tetrahydro-2H-pyran-4-yl)-1H-benzo[d]imidazol-6-yl)-1,3-dimethylpyridin-2(1H)-one] | 27
CCOC[C@H](C)n1c(C2CCOCC2)nc2ccc(-c3cc(C)c(=O)n(C)c3)cc21 [Compound 48, (S)-5-(1-(1-ethoxypropan-2-yl)-2-(tetrahydro-2H-pyran-4-yl)-1H-benzo[d]imidazol-6-yl)-1,3-dimethylpyridin-2(1H)-one] | 260
Cc1cc(-c2ccc3nc(C4CCOCC4)n(CCOC(C)C)c3c2)cn(C)c1=O [Compound 49, 5-(1-(2-isopropoxyethyl)-2-(tetrahydro-2H-pyran-4-yl)-1H-benzo[d]imidazole-6-yl)-1,3-dimethylpyridin-2(1H)-one] | 22
COC[C@@H](C)n1c(CC2CCOCC2)nc2ccc(-c3cc(C)c(=O)n(C)c3)cc21 [Compound 50, (R)-5-(1-(1-methoxypropan-2-yl)-2-((tetrahydro-2H-pyran-4-yl)methyl)-1H-benzo[d]imidazol-6-yl)-1,3-dimethylpyridin-2(1H)-one] | 160
COC[C@@H](C)n1c(C2CC(F)(F)C2)nc2ccc(-c3cc(C)c(=O)n(C)c3)cc21 [Compound 51, (R)-5-(2-(3,3-difluorocyclobutyl)-1-(1-methoxypropan-2-yl)-1H-benzo[d]imidazol-6-yl)-1,3-dimethylpyridin-2(1H)-one] | 62
CCOC[C@@H](C)n1c(C2CC(F)(F)C2)nc2ccc(-c3cc(C)c(=O)n(C)c3)cc21 [Compound 52, (R)-5-(2-(3,3-difluorocyclobutyl)-1-(1-ethoxypropan-2-yl)-1H-benzo[d]imidazol-6-yl)-1,3-dimethylpyridin-2(1H)-one] | 51
CCO[C@@H](C)Cn1c(C2CC(F)(F)C2)nc2ccc(-c3cc(C)c(=O)n(C)c3)cc21 [Compound 53, (S)-5-(2-(3,3-difluorocyclobutyl)-1-(2-ethoxypropyl)-1H-benzo[d]imidazol-6-yl)-1,3-dimethylpyridin-2(1H)-one] | 76
CCO[C@H](C)Cn1c(C2CC(F)(F)C2)nc2ccc(-c3cc(C)c(=O)n(C)c3)cc21 [Compound 54, (R)-5-(2-(3,3-difluorocyclobutyl)-1-(2-ethoxypropyl)-1H-benzo[d]imidazol-6-yl)-1,3-dimethylpyridin-2(1H)-one] | 170
CCO[C@@H](C)Cn1c(C2CCC(F)(F)CC2)nc2ccc(-c3cc(C)c(=O)n(C)c3)cc21 [Compound 55, (S)-5-(2-(4,4-difluorocyclohexyl)-1-(2-ethoxypropyl)-1H-benzo[d]imidazol-6-yl)-1,3-dimethylpyridin-2(1H)-one] | 53
COC[C@H](C)n1c(C2CCC(F)(F)CC2)nc2ccc(-c3cc(C)c(=O)n(C)c3)cc21 [Compound 56, (S)-5-(2-(4,4-difluorocyclohexyl)-1-(1-methoxypropan-2-yl)-1H-benzo[d]imidazol-6-yl)-1,3-dimethylpyridin-2(1H)-one] | 220
COC[C@@H](C)n1c(C2CCC(F)(F)CC2)nc2ccc(-c3cc(C)c(=O)n(C)c3)cc21 [Compound 57, (R)-5-(2-(4,4-difluorocyclohexyl)-1-(1-methoxypropan-2-yl)-1H-benzo[d]imidazol-6-yl)-1,3-dimethylpyridin-2(1H)-one] | 72

Same assay, conditions: inhibition of C-Myc mRNA, 4 hours treatment, read-out: IC50 MV-4-11 Cell

Compound | IC50 [nM]
COC(C)Cn1c(C)nc2ccc(-c3cc(C)c(=O)n(C)c3)cc21 (stereo not drawn) [Compound 21b, 5-[3-(2-methoxypropyl)-2-methylbenzimidazol-5-yl]-1,3-dimethylpyridin-2-one] | 590
COC(C)Cn1cnc2ccc(-c3cc(C)c(=O)n(C)c3)cc21 (stereo not drawn) [Compound 22b, 5-[3-(2-methoxypropyl)benzimidazol-5-yl]-1,3-dimethylpyridin-2-one] | 780
Cc1cc(-c2ccc3nc(C4CCOCC4)n(CC(C)C(F)(F)F)c3c2)cn(C)c1=O (stereo not drawn) [Compound 46b, 1,3-dimethyl-5-(2-(tetrahydro-2H-pyran-4-yl)-1-(3,3,3-trifluoro-2-methylpropyl)-1H-benzo[d]imidazol-6-yl)pyridin-2(1H)-one] | 250
